Laboratory results taken from patent US7208505B2, “β3 adrenergic agonists” (Eli Lilly and Company, priority 2001, dated 2007).

target: T1, human β3 adrenergic receptor (Homo sapiens, UniProt P13945); assay: whole cell receptor coupled c-AMP assay (Emax relative to isoproterenol); format: cell-based; conditions: % intrinsic activity: maximal response divided by isoproterenol maximal response times 100; transfected CHO cells; average of at least 3 runs
T1 construct: expressed in transfected cells
T1 sequence (P13945 whole entry): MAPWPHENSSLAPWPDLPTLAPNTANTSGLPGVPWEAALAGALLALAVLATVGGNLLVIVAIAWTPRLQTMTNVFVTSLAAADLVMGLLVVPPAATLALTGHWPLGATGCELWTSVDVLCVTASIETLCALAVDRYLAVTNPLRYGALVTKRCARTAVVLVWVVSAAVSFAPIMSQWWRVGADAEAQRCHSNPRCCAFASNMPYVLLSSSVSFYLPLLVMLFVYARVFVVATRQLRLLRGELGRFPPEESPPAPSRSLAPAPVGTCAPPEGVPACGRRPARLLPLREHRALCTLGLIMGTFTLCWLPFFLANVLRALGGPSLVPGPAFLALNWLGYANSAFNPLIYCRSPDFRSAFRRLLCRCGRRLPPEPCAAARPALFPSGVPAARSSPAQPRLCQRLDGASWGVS
From the text: The genes encoding the human β1-adrenergic receptor (Frielle et al., Proc. Natl. Acad. Sci., 84:7920–7924, 1987), the human β2-adrenergic receptor (Kobika et al., Proc. Natl. Acad. Sci., 84:46–50, 1987, Emorine et al., Proc. Natl. Acad. Sci., 84:6995–6999, 1987) and the human β3 adrenergic receptor (Granneman et al., Molecular Pharmacology, 44(2):264–70, 1993) are individually subcloned into a phd expression vector (Grinnell et al., Bio/Technology, 5:1189–1192, 1987) and transfected into the DXB-11 Chinese hamster ovary (CHO) cell line by calcium phosphate precipitation methodology. The stably transfected cells are grown to 95% confluency in 95% Dulbecco's modified Eagles Medium (DMEM), 5% fetal bovine serum and 0.01% proline. Media is removed and the cells are washed with phosphate buffered (pH 7.4) saline (without magnesium and calcium). Cells are then lifted using an enzyme free cell dissociation solution (Specialty Media, Lavallette, N.J.) and pelleted by centrifugation.
Cells from each of the above cell lines are resuspended and added (20,000/well) to a 96-well plate. Cells are incubated at 37° C. with representative compounds of the invention for 20 minutes in buffer (Hank's balanced salt solution, 10 mM HEPES, 0.1% BSA, 1 mM L-ascorbic acid, 0.2% dimethyl sulfoxide, 1 mM 3-isobutyl-1-methylxanthine, pH 7.4). After halting the incubation with quench buffer (50 mM Na Acetate, 0.25% Triton X-100, pH 5.8), the c-AMP level is quantified by scintillation proximity assay (SPA) using a modification of the commercially available c-AMP kit (Amersham, Arlington Heights, Ill.) with rabbit anti-cAMP antibody (ICN Biomedicals, Aurora, Ohio) for the kit.
Sigmoidal dose response curves, from the whole cell receptor coupled c-AMP assay are fit to a four parameter logistic equation using non linear regression: y=(a−d)/(1+(Dose/c)^b)+d where a and d are responses at zero and maximal dose, b is the slope factor and c is the EC50 as previously described (DeLean et al., Am. J. Physiol., 235, E97-E102, 1978). EC50 is assessed as the concentration producing 50% of the maximum response to each agonist.
Isoproterenol is accepted in the art as a non-selective β3 agonist and is widely used as a comparator in evaluating the activity of compounds. See Trends in Pharm. Sci., 15:3, 1994. The % intrinsic activity (Emax) of representative compounds of the invention is assessed relative to isoproterenol by the compound's maximal response divided by the isoproterenol maximal response times 100.

| SMILES | Emax (%) ± SEM |
| --- | --- |
| C[C@@H](Cc1c[nH]c2c(OCC#N)cccc12)NC[C@H](O)COc1ccccc1-c1nncs1 [Example 161] | 21.7 ± 3.1% |
| Cc1cc(-c2ccccc2OC[C@@H](O)CNC(C)(C)Cc2c[nH]c3c(OCC#N)cccc23)on1.O=C(O)C(F)(F)F [Example 10] | 63.2 ± 5.3% |
| C[C@H](CN1CCc2ccccc21)NC[C@H](O)COc1ccccc1-c1cccs1 [Example 128] | 46.5 ± 3.0% |
| CC(=O)c1cccc(-c2cccc3c(CC(C)(C)NC[C@H](O)COc4ccccc4-c4ccon4)c[nH]c23)c1 [Example 47] | 69.2 ± 2.0% |
| CC(C)(Cc1c[nH]c2c(Oc3cc(C#N)ccn3)cccc12)NC[C@H](O)COc1ccccc1-c1cccs1 [Example 114] | 72.1 ± 5.0% |
| CC(=O)c1cccc(-c2cccc3c(CC(C)(C)NC[C@H](O)COc4ccccc4-c4cccs4)c[nH]c23)c1 [Example 46] | 68.2 ± 2.2% |
| CC(C)(Cc1c[nH]c2c(C(=O)O)cccc12)NC[C@H](O)COc1ccccc1-c1ccc(C#N)s1 [Example 90] | 90.4 ± 3.8% |
| CC(C)(Cc1c[nH]c2c(OCC#N)cccc12)NC[C@H](O)COc1ccccc1-c1ncco1.O=C(O)C(F)(F)F [Example 8] | 82.2 ± 3.8% |
| CC(C)(Cc1c[nH]c2c(C(=O)O)cccc12)NC[C@H](O)COc1ccccc1-c1ccsc1 [Example 61] | 56.6 ± 2.7% |
| CC(C)(Cc1c[nH]c2c(-c3cccs3)cccc12)NC[C@H](O)COc1ccccc1-c1ccon1 [Example 109] | 68.0 ± 4.1% |
| CC(C)(Cc1c[nH]c2ccccc12)NC[C@H](O)COc1ccccc1-n1ccc(C#N)c1 [Example 35] | 50.3 ± 2.2% |
| Cc1csc(-c2ccccc2OC[C@@H](O)CNC(C)(C)Cc2c[nH]c3ccccc23)c1.O=C(O)C(F)(F)F [Example 21] | 61.3 ± 3.2% |
| CC(C)(Cc1c[nH]c2c(-c3ccsc3)cccc12)NC[C@H](O)COc1ccccc1-c1ccon1 [Example 107] | 57.9 ± 6.2% |
| CC(C)(Cc1c[nH]c2c(-c3ccc(C(F)(F)F)cc3C(F)(F)F)cccc12)NC[C@H](O)COc1ccccc1-c1cccs1 [Example 110] | 72.7 ± 5.3% |
| Cc1ccc(-c2ccccc2OC[C@@H](O)CNC(C)(C)Cc2c[nH]c3ccccc23)s1.O=C(O)C(F)(F)F [Example 13] | 63.4 ± 0.3% |
| CC(C)(Cc1c[nH]c2c(OCC(N)=O)cccc12)NC[C@H](O)COc1ccccc1-n1cccc1 [Example 3] | 68.9 ± 2.6% |
| COC(=O)c1ccc(-c2cccc3c(CC(C)(C)NC[C@H](O)COc4ccccc4-c4ccon4)c[nH]c23)cc1 [Example 44] | 38.5 ± 2.3% |
| CC(C)(Cc1c[nH]c2c(-c3ccc(C(F)(F)F)cc3)cccc12)NC[C@H](O)COc1ccccc1-c1cccs1 [Example 104] | 59.2 ± 1.0% |
| CC(C)(Cc1c[nH]c2ccccc12)NC[C@H](O)COc1ccc(F)cc1-c1ccno1 [Example 81] | 35.1 ± 2.1% |
| CC(C)(Cc1c[nH]c2c(-c3ccc(C(N)=O)cc3)cccc12)NC[C@H](O)COc1ccccc1-c1cccs1 [Example 102] | 69.0 ± 2.2% |
| Cc1cc(-c2ccccc2OC[C@@H](O)CNC(C)(C)Cc2c[nH]c3ccccc23)cs1.O=C(O)C(F)(F)F [Example 17] | 43.1 ± 3.0% |
| CC(C)(Cc1c[nH]c2ccc(C#N)cc12)NC[C@H](O)COc1ccccc1-c1cccs1 [Example 74] | 28.3 ± 2.6% |
| CC(C)(Cc1c[nH]c2c(-c3cccs3)cccc12)NC[C@H](O)COc1ccccc1-c1cccs1 [Example 108] | 71.5 ± 7.9% |
| CC(C)(Cc1c[nH]c2ccccc12)NC[C@H](O)COc1ccccc1-c1ncco1 [Example 33] | 75.9 ± 1.9% |
| CC(C)(Cc1c[nH]c2c(NS(C)(=O)=O)cccc12)NC[C@H](O)COc1ccccc1-c1cccs1 [Example 27] | 81.0 ± 3.2% |

Now from value to molecule:

| Emax (%) ± SEM | SMILES |
| --- | --- |
| 63.1 ± 4.4% | C[C@H](Cn1ccc2c(OCC#N)cccc21)NC[C@H](O)COc1ccccc1-c1cccs1 [Example 152] |
| 78.1 ± 4.6% | CC(C)(Cc1c[nH]c2c(OCC(=O)[O-])cccc12)NC[C@H](O)COc1ccccc1-c1cccs1.[Na+] [Example 225] |
| 73.3 ± 5.9% | CC(C)(Cc1c[nH]c2c(CCC#N)cccc12)NC[C@H](O)COc1ccccc1-c1cccs1 [Example 144] |
| 64.5 ± 1.7% | CC(C)(Cc1c[nH]c2c(C=Cc3ccc(S(N)(=O)=O)cc3)cccc12)NC[C@H](O)COc1ccccc1-c1cccs1 [Example 189] |
| 57.1 ± 5.8% | CC(C)(Cc1c[nH]c2ccc(F)cc12)NC[C@H](O)COc1ccccc1-c1cccs1 [Example 163] |
| 50.2 ± 1.5% | CC(C)(Cc1c[nH]c2c(F)cccc12)NC[C@H](O)COc1ccccc1-c1ccon1 [Example 173] |
| 39.6 ± 0.7% | COC(=O)c1ccc(-c2cccc3c(CC(C)(C)NC[C@H](O)COc4ccccc4-c4cccs4)c[nH]c23)s1 [Example 181] |
| 36.3 ± 1.8% | C[C@H](NC[C@H](O)COc1ccccc1-c1cccs1)C(=O)N1CCc2ccccc21 [Example 130] |
| 56.0 ± 1.5% | CC(C)(Cc1c[nH]c2c(F)cccc12)NC[C@H](O)COc1ccccc1-c1nccs1 [Example 171] |
| 47.8 ± 0.6% | CC(C)(Cc1c[nH]c2cccc(F)c12)NC[C@H](O)COc1ccccc1-c1ccon1 [Example 166] |
| 55.6 ± 6.0% | CC(C)(NC[C@H](O)COc1ccccc1-c1cccs1)C(=O)N1CCc2ccccc21 [Example 192] |
| 41.9 ± 9.3% | Cc1cc2c(OCC#N)cccc2n1C[C@@H](C)NC[C@H](O)COc1ccccc1-c1cccs1 [Example 156] |
| 85.6 ± 7.8% | CC(C)(Cc1c[nH]c2ccccc12)NC[C@H](O)COc1ccccc1-c1ccc(S(N)(=O)=O)s1 [Example 191] |
| 37.1 ± 4.0% | C[C@H](Cn1ccc2ccccc21)NC[C@H](O)COc1ccccc1-c1ccon1 [Example 165] |
| 79.0 ± 2.9% | CC(C)(Cc1c[nH]c2c(OCC(=O)NS(C)(=O)=O)cccc12)NC[C@H](O)COc1ccccc1-c1cccs1 [Example 176] |
| 64.2 ± 7.6% | CC(C)(Cc1c[nH]c2cccc(F)c12)NC[C@H](O)COc1ccccc1-c1cccs1 [Example 162] |
| 73.8 ± 1.5% | CC(C)(Cc1c[nH]c2c(OCCNS(C)(=O)=O)cccc12)NC[C@H](O)COc1ccccc1-c1cccs1 [Example 177] |
| 58.7 ± 13.4% | C[C@H](Cn1ccc2cc(OCC#N)ccc21)NC[C@H](O)COc1ccccc1-c1cccs1 [Example 155] |
| 70.5 ± 3.8% | CC(C)(Cc1c[nH]c2c(C=Cc3cnccn3)cccc12)NC[C@H](O)COc1ccccc1-c1cccs1 [Example 188] |
| 71.5 ± 1.1% | CC(=O)Nc1ccc(-c2cccc3c(CC(C)(C)NC[C@H](O)COc4ccccc4-c4cccs4)c[nH]c23)cc1 [Example 179] |

same assay, conditions: CHO, % intrinsic activity: maximal response divided by isoproterenol maximal response times 100; transfected CHO cells; average of at least 3 runs

| SMILES | Emax |
| --- | --- |
| CC(C)(CC1=CCc2c(Oc3ccc(C(N)=O)cn3)cccc21)NC[C@H](O)COc1ccccc1-c1cccs1 [Example 219] | 85.9 ± 9.4% |
| CC(C)(Cc1c[nH]c2cc(/C=C/c3nnn[nH]3)ccc12)NC[C@H](O)COc1ccccc1-c1cccs1 [Example 252] | 82.3 ± 4% |
| CC(C)(Cc1c[nH]c2cc(CCc3nnn[nH]3)ccc12)NC[C@H](O)COc1ccccc1-c1cccs1 [Example 255] | 83.9 ± 3.2% |
| CC(C)(Cc1c[nH]c2c(CCn3cncn3)cccc12)NC[C@H](O)COc1ccccc1-c1cccs1 [Example 222] | 81.2 ± 0.9% |
| CC(C)(Cc1c[nH]c2cccc(C(=O)O)c12)NC[C@H](O)COc1ccccc1-c1cccs1 [Example 238] | < 10% |
| CC(C)(Cc1c[nH]c2c(Oc3ccc(C(N)=O)cn3)cccc12)NC[C@H](O)COc1ccccc1-c1ccon1 [Example 245] | 63.3 ± 3% |
| CC(C)(Cc1c[nH]c2cc(OCC(=O)O)ccc12)NC[C@H](O)COc1ccccc1-c1cccs1 [Example 236] | 88.4 ± 3.9% |
| CC(C)(Cc1c[nH]c2c(CCc3cnccn3)cccc12)NC[C@H](O)COc1ccccc1-c1cccs1 [Example 253] | 81.6 ± 4% |
| CC(C)(Cc1c[nH]c2ccc(C(=O)O)cc12)NC[C@H](O)COc1ccccc1-c1cccs1 [Example 239] | 69.6 ± 3.5% |
